{
  "source": "paper PMC12270203",
  "about": "“The ExoGAN generative AI framework enables extracellular vesicle-based immunotherapy” (Research Square, 2025)",
  "key": {"[1]": {"system": "surface HLA*A02:01 on engineered K562 cells (K+)", "experiment": "Flow cytometry peptide exchange / antigen presentation assay on K562 cells", "type": "cell-based, human", "conditions": "1 uM AF555 N-terminal tagged peptide, 5 uM GL dipeptide, 1 uM brefeldin A, 3 hours, N=4", "procedure": "(K+) that only expresses the HLA*A02:01 allele (see Methods).\nTo validate ExoGAN at the cellular level, we used engineered K562[53] cells (K+) that only express surface HLA*A02:01. Native K562 cells (K−) and K+ cells were grown in complete 1640-RPMI (Gibco) media and harvested at 1 x 10^6 cells. Based on the method reported by Saini et al.[70], cells were incubated with 1 uM AF555 N-terminal tagged peptides with or without the 5 uM GL dipeptide in 1 uM brefeldin A for 3 hours in a 96 well plate. Total volume was 200 uL per well. Cells were washed 3x and subjected to flow cytometry for HLA*A02:01 affinity."}, "[2]": {"system": "DMF5 TCR on J+ cells", "experiment": "J+ cell immunostimulation by peptide-engineered APC-EVs", "type": "cell-based, human", "conditions": "2x10^9 particles, 24 hours", "procedure": "We designed EVs derived from K+ cells with ExoGAN-designed peptides to precisely activate J+ cells expressing the melanoma TCR, DMF5.\n100 uL of the isolate solution was combined with a 100 uL mastermix solution containing 5 uM GL dipeptide and 1 uM peptide. The 200 uL solution was incubated on a revolver at 4°c for 1.5 hours, following purification by ultrafiltration using a 10k MWCO column into a 30 uL solution. 10 uL was used for zeta potential, nano flow cytometry to assess peptides binding onto HLA-A*02:01 and 10 uL was used to assess CD69 expression and IL-2 secretion from J+ cells. To measure J+ functionality, 2x10^5 J+ cells in 190 uL were added to a 96 round bottom well plate, followed by adding the 10 uL isolate solution. 24 hours later, CD69 was evaluated with flow cytometry"}, "[3]": {"biological_target": "HLA-A*02:01 on engineered K562 cells (K+) and on extracellular vesicles isolated from them (human)", "experiment": "nano flow cytometry on extracellular vesicles; EVs isolated from K+ cells incubated with 1 uM AF647-tagged peptide and 5 uM GL dipeptide, ultrafiltered (10k MWCO), stained with an AF488 HLA-A*02:01 antibody; NanoFCM"}},
  "note": "Where no end group is shown, it is not given here.",
  "data": [
    {"molecule": "CLICMDMVV [Exo_4]", "values": [
      {"measurement": "peptide presentation on K+ cells (AF555 median fluorescent intensity)", "setting": "[1]", "result": "most potent peptide binders"}
    ]},
    {"molecule": "FLIDLAFLI [IEDB, reference compound]", "values": [
      {"measurement": "peptide presentation on K+ cells (AF555 median fluorescent intensity)", "setting": "[1]", "result": "most potent peptide binders"}
    ]},
    {"molecule": "FLIHSRNHD [Exo_1]", "values": [
      {"measurement": "CD69 median fluorescent intensity of J+ cells", "setting": "[2]; 2x10^5 J+ cells, flow cytometry, N=4", "result": "outperformed MART-1"},
      {"measurement": "IL-2 secretion of J+ cells", "setting": "[2]; J+ cells, ELISA, Dunnett's test corrected one-way ANOVA, p <0.05", "result": "significantly more"}
    ]},
    {"molecule": "CLICMDMVV (cysteine pairing not given here; also: AF647-tagged, position not given here)", "note": "[Exo_4, AF647-tagged]", "values": [
      {"measurement": "percent peptide binding", "setting": "[3]", "result": 100, "unit": "%"}
    ]},
    {"molecule": "AAICTLLYD (also: AF647-tagged, position not given here)", "note": "[Exo_3, AF647-tagged]", "values": [
      {"measurement": "percent peptide binding", "setting": "[3]", "result": 100, "unit": "%"}
    ]},
    {"molecule": "FLIHSRNHD (also: AF647-tagged, position not given here)", "note": "[Exo_1, AF647-tagged]", "values": [
      {"measurement": "percent peptide binding", "setting": "[3]", "result": 100, "unit": "%"}
    ]},
    {"molecule": "HHMNMSMSK (also: AF647-tagged, position not given here)", "note": "[Exo_2, AF647-tagged]", "values": [
      {"measurement": "percent peptide binding", "setting": "[3]", "result": 100, "unit": "%"}
    ]}
  ]
}
